Measurements published in patent publication US20020157138A1, “Transformation and regeneration of sunflower cotyledons” (priority 2001, published 2002).

Key:
SFB193 and SFB216 = test: Glyphosate spray of plants from R2 seeds at V4 and V8 stages; format: in vivo, sunflower; settings: 32 and 64 oz/acre; V4 and V8 stages of plant development
Experimental: (§1) Transgenic R1 sunflower plants (from strain HA300B), transformed with pWRG4750, were transformed and regenerated as described in Examples 5-9 and tested in greenhouse. About 5000 R2 seeds of two independent transformants, SFB193 and SFB216, were planted. Some plants were sprayed with Glyphosate at V-4 and V-8 leaf stages at 0 and 32 oz/acre level. For the other plants, glyphosate treatment rates, at V4 stage were 0-, 32-, or 64 oz./acre. The sunflower plants were assessed for resistance to glyphosate.

SFB216 = test: Glyphosate spray in greenhouse, transgenic sunflower; format: in vivo
Experimental: as §1, with “For the other plants, glyphosate treatment rates, at V4 stage were 0-, 32-, or 64 oz./acre.” left out
(§2) In addition, the glyphosate-treated transgenic plants were scored for normal head development.

HA300B (Control) = test: Glyphosate spray in greenhouse, non-transgenic control; format: in vivo, sunflower; settings: for Tolerance to glyphosate spray: greenhouse, about v6 to v10 leaf stage
Experimental: (§3) Transgenic R1 sunflower plants (from strain HA300B), transformed with pWRG4750, were transformed and regenerated as described in Examples 5-9 and tested in greenhouse. About 5000 R2 seeds of two independent transformants, SFB193 and SFB216, were planted. […] […] The sunflower plants were assessed for resistance to glyphosate.
as §2

SFB193 = test: Glyphosate spray in greenhouse, transgenic sunflower; format: in vivo
Experimental: as §3, §2

sunflower cotyledons = test: Assessment of selection agents (GUS assay of transformed cotyledons and shoots); format: cell-based, Helianthus annuus L.; settings: glyphosate 0.05->0.1->0.05 mM, paromomycin 25->50->25 mg/L, kanamycin 50 mg/L; for GUS Positive/Total cotyledons assayed: destructive GUS assays at different stages
Experimental: After the post-transformation delay, the transformed cotyledons were transferred through a series of selection cultures containing low-high-low concentrations of selective agent. The cotyledons were first placed in Selection media (see Table 1) containing 0.05 mM glyphosate for about 10 days. Plates were incubated at 23° C., low light, and 18/6 hour photoperiod. The cotyledons were then transferred to a second selection culture containing Selection media +0.1 mM glyphosate for about 2 additional weeks. Finally, the cotyledons were placed in a third selection culture containing Selection media +0.05 mM glyphosate for about 7 to 14 days. In addition to glyphosate, several other selection agents were tested (Table 4).

SMILES | Vegetative tolerance to glyphosate spray (SFB193 and SFB216) | Normal Sunflower Heads After Treatment With Glyphosate (SFB216; 32 oz./acre) [%] | Normal Sunflower Heads After Treatment With Glyphosate (SFB216; 64 oz./acre) [%] | Normal Sunflower Heads After Treatment With Glyphosate (SFB216; 96 oz./acre) [%] | Normal Sunflower Heads After Treatment With Glyphosate (SFB216; 128 oz./acre) [%] | Normal Sunflower Heads After Treatment With Glyphosate (HA300B (Control); 32 oz./acre) [%] | Tolerance to glyphosate spray (HA300B (Control); 32 oz./acre) | Normal Sunflower Heads After Treatment With Glyphosate (HA300B (Control); 64 oz./acre) [%] | Tolerance to glyphosate spray (HA300B (Control); 64 oz./acre) | Normal Sunflower Heads After Treatment With Glyphosate (HA300B (Control); 96 oz./acre) [%] | Normal Sunflower Heads After Treatment With Glyphosate (HA300B (Control); 128 oz./acre) [%] | Normal Sunflower Heads After Treatment With Glyphosate (SFB193; 32 oz./acre) [%] | Normal Sunflower Heads After Treatment With Glyphosate (SFB193; 64 oz./acre) [%] | Normal Sunflower Heads After Treatment With Glyphosate (SFB193; 96 oz./acre) [%] | Normal Sunflower Heads After Treatment With Glyphosate (SFB193; 128 oz./acre) [%] | GUS Positive/Total cotyledons assayed (sunflower cotyledons) | GUS Positive Shoots (sunflower cotyledons)
O=C(O)CNCP(=O)(O)O [Glyphosate] | excellent vegetative tolerance | 70 | 32 | 14 | 0 | 0 | No Tolerance | 0 | No Tolerance | 0 | 0 | 56 | 79 | 50 | 25 | 63/80 | 7
NC[C@@H]1O[C@H](O[C@H]2[C@@H](O)[C@H](O[C@@H]3[C@@H](O)[C@H](N)C[C@H](N)[C@H]3O[C@H]3O[C@H](CO)[C@@H](O)[C@H](O)[C@H]3N)O[C@@H]2CO)[C@H](N)[C@@H](O)[C@@H]1O [Paromomycin] |  |  |  |  |  |  |  |  |  |  |  |  |  |  |  | 15/30 | 7
NC[C@H]1O[C@H](O[C@H]2[C@H](O)[C@@H](O[C@H]3O[C@H](CO)[C@@H](O)[C@H](N)[C@H]3O)[C@H](N)C[C@@H]2N)[C@H](O)[C@@H](O)[C@@H]1O [Kanamycin] |  |  |  |  |  |  |  |  |  |  |  |  |  |  |  | 59/64 | 16
